This is an account of results in patent publication US9657013B2, “Inhibitors of hepatitis B virus covalently closed circular DNA formation and their method of use” (priority 2012, dated 2017).

Format in all cases: cell-based, hepatitis B virus
The subject of one assay is HBV Dp-rcDNA and cccDNA. As to the kind of experiment: stability of HBV DP-rcDNA and cccDNA.
A further assay concerns HBV RNA and core DNA. As to the kind of experiment: viral RNA and core DNA in HepDES19 cells (Northern/Southern blot). The conditions noted are these: for reduction of viral RNA and DNA replicative intermediates: day 12, high concentrations; for steady state levels of HBV RNA and core DNA: early time point (day 4) of treatment. An excerpt: (§1) Viral nucleic acid analysis: Total cellular RNA was extracted with TRIzol reagent (Invitrogen, Grand Island, N.Y.) by following manufacturer's directions. Ten microgram of total cellular RNA was resolved in 1.5% agarose gel containing 2.2 M formaldehyde and transferred onto Hybond-XL membrane (GE Healthcare, Piscataway, N.J.) in 20×SSC buffer. Intracellular hepadnaviral core DNA and cccDNA (Hirt DNA) were extracted as described previously (Guo, H., D. Jiang, T. Zhou, A. Cuconati, T. M. Block, and J. T. Guo. 2007. Guo, H., D. Jiang, T. Zhou, A. Cuconati, T. M. Block, and J. T. Guo. 2007. Guo, H., R. Mao, T. M. Block, and J. T. Guo. 2010. Guo, H., W. S. Mason, C. E. Aldrich, J. R. Saputelli, D. S. Miller, A. R. Jilbert, and J. E. Newbold. 2005). Half of the DNA samples recovered from one well of a 6-well-plate were resolved by electrophoresis into a 1.2% agarose gel and blotted onto Hybond-XL membrane. Membranes were probed with either an α-^32P-UTP (800 Ci/mmol, Perkin Elmer) labeled hepadnaviral minus (detecting DNA) or plus strand (detecting RNA) specific full-length riboprobe and exposed to a phosphorimager screen (Fuji Film, Tokyo, Japan). Hybridization signals were visualized by Typhoon FLA-7000 (GE Healthcare) and quantified with ImageQuantTL software (GE Healthcare).
Identification of compounds that inhibits cccDNA accumulation in HepDES19 cells: Compounds were tested on HepDES19 cells, which have a higher level of cccDNA production than HepDE19 cells (Guo, H., D. Jiang, T. Zhou, A. Cuconati, T. M. Block, and J. T. Guo. 2007). Briefly, after withdrawal of tetracycline, HepDES19 cells were left untreated, or were treated with compound at serial concentrations; tetracycline-free media was changed every other day with fresh compound supplementation. The concentration of DMSO in all experimental groups was normalized at 0.1%. […] Shorter exposure of the Hirt DNA blot was used for the quantitative determination of DP-rcDNA signals. […] The reduction between DP-rcDNA and cccDNA was proportional compared with untreated control. […] Liu, C. P. Hu, and C. Chang. 2005. Guo, H., T. Zhou, D. Jiang, A. Cuconati, G. H. Xiao, T. M. Block, and J. T. Guo. 2007. Zhou, T., H. Guo, J. T. Guo, A. Cuconati, A. Mehta, and T. M. Block. 2006).

Another assay has as its system HBV DP-rcDNA. As to the kind of experiment: DP-rcDNA level in HepDES19 cells (Southern blot). The following applies: for reduction of DP-rcDNA: early time point.
Excerpt: as §1
Identification of compounds that inhibits cccDNA accumulation in HepDES19 cells: Compounds were tested on HepDES19 cells, which have a higher level of cccDNA production than HepDE19 cells (Guo, H., D. Jiang, T. Zhou, A. Cuconati, T. M. Block, and J. T. Guo. 2007). Briefly, after withdrawal of tetracycline, HepDES19 cells were left untreated, or were treated with compound at serial concentrations; tetracycline-free media was changed every other day with fresh compound supplementation. […] The cells were harvested at day 12, viral RNA (top panel), core DNA (middle panel), and Hirt DNA (DP-rcDNA and cccDNA) (bottom panels) were extracted and analyzed by Northern blot and Southern blot, respectively. Shorter exposure of the Hirt DNA blot was used for the quantitative determination of DP-rcDNA signals. […]

The next assay concerns HBV cccDNA. As to the kind of experiment: cccDNA inhibition assay (Southern blot of Hirt DNA). The conditions noted are these: for levels of HBV cccDNA and DP-rcDNA in cell cultures / EC50: HepDES19 cells; for levels of HBV cccDNA and DP-rcDNA in cell cultures: day 12, figure legend; for EC50: 288 h, harvested at day 12, read-out: EC50 of reduction of cccDNA. The procedure: Cell cultures: HepG2.2.15 cells were maintained in DMEM/F12 medium (Mediatech, Manassas, Va.) supplemented with 10% fetal bovine serum, 100 U/ml penicillin and 100 μg/ml streptomycin, plus 400 μg/ml G418. Tetracycline inducible HBV producer cells, specifically HepDE19 and HepDES19 cells, were maintained in the same way as HepG2.2.15, but with the addition of 1 μg/ml tetracycline (Guo, H., D. Jiang, T. Zhou, A. Cuconati, T. M. Block, and J. T. Guo. 2007). To initiate HBV replication and cccDNA formation in HepDE19 and HepDES19 cells, tetracycline was withdrawn from the culture medium and the cells were cultured for the indicated time period.
as §1, with “Healthcare). […]” for “Healthcare).”
Identification of compounds that inhibits cccDNA accumulation in HepDES19 cells: Compounds were tested on HepDES19 cells, which have a higher level of cccDNA production than HepDE19 cells (Guo, H., D. Jiang, T. Zhou, A. Cuconati, T. M. Block, and J. T. Guo. 2007). Briefly, after withdrawal of tetracycline, HepDES19 cells were left untreated, or were treated with compound at serial concentrations; tetracycline-free media was changed every other day with fresh compound supplementation. The concentration of DMSO in all experimental groups was normalized at 0.1%. The cells were harvested at day 12, viral RNA (top panel), core DNA (middle panel), and Hirt DNA (DP-rcDNA and cccDNA) (bottom panels) were extracted and analyzed by Northern blot and Southern blot, respectively. Shorter exposure of the Hirt DNA blot was used for the quantitative determination of DP-rcDNA signals. […] The reduction between DP-rcDNA and cccDNA was proportional compared with untreated control. […] Liu, C. P. Hu, and C. Chang. 2005. Guo, H., T. Zhou, D. Jiang, A. Cuconati, G. H. Xiao, T. M. Block, and J. T. Guo. 2007. Zhou, T., H. Guo, J. T. Guo, A. Cuconati, A. Mehta, and T. M. Block. 2006).

In general, EC50 refers to the concentration giving half of the maximal effect. A word on the inhibition: it is how much of the control response was suppressed. `Cc1nc2cc(NC(=O)c3ccc(S(=O)(=O)N(C)Cc4ccccc4)cc3)ccc2s1` [CCC-0346, 4-(Benzyl-methyl-sulfamoyl)-N-(2-methyl-benzothiazol-5-yl)-benzamide]: the “stability of HBV Dp-rcDNA and cccDNA” value in the assay with HBV Dp-rcDNA and cccDNA is recorded as “did not alter”. In addition, in the assay on HBV RNA and core DNA, the “reduction of viral RNA and DNA replicative intermediates” value is reported as “slight reduction”; the “steady state levels of HBV RNA and core DNA” value is listed as “did not reduce”. Moreover, the “reduction of DP-rcDNA” value in the assay on HBV DP-rcDNA is recorded as “significant reduction”. The “levels of HBV cccDNA and DP-rcDNA in cell cultures” value in the assay on HBV cccDNA was “reduces”. The concentration for a half-maximal effect (EC50) with HBV cccDNA (Hepatitis B virus) amounted to 3 µM. For the same compound, the inhibition at 0.3 µM in the assay with HBV cccDNA (Hepatitis B virus, Concentration 0.3 μM, read-out: cccDNA inhibition % Reduction) is 20%. Further, the inhibition at 1 µM in the assay on HBV cccDNA (Hepatitis B virus, Concentration 1 μM, read-out: cccDNA inhibition % Reduction) is 30%. Besides, in the assay with HBV cccDNA (Hepatitis B virus, Concentration 3 μM, read-out: cccDNA inhibition % Reduction), the inhibition at 3 µM was 60%.
For `O=C(CN(c1cc(C(F)(F)F)ccc1Cl)S(=O)(=O)c1ccccc1)NCc1ccncc1` [CCC-0975, 2-[Benzenesulfonyl-(2-chloro-5-trifluoromethyl-phenyl)-amino]-N-pyridin-4-ylmethyl-acetamide], the “stability of HBV Dp-rcDNA and cccDNA” value with HBV Dp-rcDNA and cccDNA is on record as “did not alter”. Moreover, the “reduction of viral RNA and DNA replicative intermediates” value with HBV RNA and core DNA is “slight reduction”. Also, in the assay with HBV RNA and core DNA, the “steady state levels of HBV RNA and core DNA” value was “did not reduce”. Further, the “reduction of putative cccDNA precursor DP-rcDNA” value in the assay with HBV DP-rcDNA (HepDES19 cells, day 12) is on record as “significant reduction”. For the same compound, in the assay with HBV DP-rcDNA, the “reduction of DP-rcDNA” value is reported as “significant reduction”. In addition, the “cccDNA inhibition % Reduction” value in the assay on HBV cccDNA (Concentration 1 μM, 1 µM) turned out to be 10%; with HBV cccDNA (Concentration 3 μM, 3 µM), 20%; in the assay on HBV cccDNA (Concentration 10 μM, 10 µM), 70%. Besides, the “levels of HBV cccDNA and DP-rcDNA in cell cultures” value with HBV cccDNA was “reduces”. Besides, the EC50 with HBV cccDNA (Hepatitis B virus) was 10 µM.
